Results: US20230085307A1, “PYRIDAZINONE COMPOUND AND HERBICIDE” (NISSAN CHEMICAL CORPORATION, priority 2019, published 2023)

Key:
[1] = system: chickweed; assay: Test Example 4: herbicidal effect by soil treatment (Table 19, symbol P); type: in vivo, common chickweed (Stellaria media); settings: AAH 320 g/ha
Procedure, shortened: (§1)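 Pre-emergence style soil spray: seeds under ~1.5 cm sterilized diluvial soil received a uniform coat of emulsion diluted to the predetermined herbicide amount. Greenhouse 25–30° C; readout at week three on previously defined criteria.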

[2] = system: velvetleaf; assay: Test Example 4: herbicidal effect by soil treatment (Table 19, symbol M); type: in vivo, velvetleaf (Abutilon theophrasti); settings: AAH 320 g/ha
Procedure, shortened: as §1

[3] = system: lambsquarters; assay: Test Example 4: herbicidal effect by soil treatment (Table 19, symbol O); type: in vivo, lambsquarters (Chenopodium album); settings: AAH 320 g/ha
Procedure, shortened: as §1

[4] = system: Italian ryegrass; assay: Test Example 5: herbicidal effect by foliage application, plastic box (Table 20, symbol K); type: in vivo, Italian ryegrass (Lolium multiflorum); settings: foliage application, AAH 320 g/ha, three weeks after application
Procedure, shortened: (§2)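 Plants were sown into sterilized diluvial soil under about 1.5 cm cover and kept in a greenhouse at 25° C. to 30° C. Fourteen days on, foliage received an even spray of the diluted emulsion. Herbicidal or crop effect was judged three weeks afterwards.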

[5] = system: barnyard grass; assay: Test Example 3: herbicidal effect by foliage application, Wagner pot (Table 18, symbol H); type: in vivo, barnyard grass (Echinochloa crus-galli); settings: 320 g/ha
Procedure, shortened: (§3)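 Plants were sown in alluvial soil held under 0.1–0.5 cm standing water and grown 14 days in a greenhouse at 25–30 °C. An emulsifiable formulation, water-diluted to the set dose, was then sprayed onto the foliage, and effects were scored three weeks later using previously defined criteria.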

[6] = system: velvetleaf; assay: Test Example 5: herbicidal effect by foliage application, plastic box (Table 20, symbol M); type: in vivo, velvetleaf (Abutilon theophrasti); settings: foliage application, AAH 320 g/ha, three weeks after application
Procedure, shortened: as §2

[7] = system: wild oat; assay: Test Example 5: herbicidal effect by foliage application, plastic box (Table 20, symbol I); type: in vivo, wild oat (Avena fatua); settings: foliage application, AAH 320 g/ha, three weeks after application
Procedure, shortened: as §2

[8] = system: windgrass; assay: Test Example 5: herbicidal effect by foliage application, plastic box (Table 20, symbol L); type: in vivo, windgrass (Apera spica-venti); settings: foliage application, AAH 320 g/ha, three weeks after application
Procedure, shortened: as §2

[9] = system: Italian ryegrass; assay: Test Example 4: herbicidal effect by soil treatment (Table 19, symbol K); type: in vivo, Italian ryegrass (Lolium multiflorum); settings: AAH 320 g/ha
Procedure, shortened: as §1

[10] = system: barnyard grass; assay: Test Example 4: herbicidal effect by soil treatment (Table 19, symbol H); type: in vivo, barnyard grass (Echinochloa crus-galli); settings: AAH 320 g/ha
Procedure, shortened: as §1

[11] = system: windgrass; assay: Test Example 4: herbicidal effect by soil treatment (Table 19, symbol L); type: in vivo, windgrass (Apera spica-venti); settings: AAH 320 g/ha
Procedure, shortened: as §1

[12] = system: southern crabgrass; assay: Test Example 5: herbicidal effect by foliage application, plastic box (Table 20, symbol F); type: in vivo, southern crabgrass (Digitaria ciliaris); settings: foliage application, AAH 320 g/ha, three weeks after application
Procedure, shortened: as §2

[13] = system: blackgrass; assay: Test Example 4: herbicidal effect by soil treatment (Table 19, symbol J); type: in vivo, blackgrass (Alopecurus myosuroides); settings: AAH 320 g/ha
Procedure, shortened: as §1

[14] = system: lambsquarters; assay: Test Example 5: herbicidal effect by foliage application, plastic box (Table 20, symbol O); type: in vivo, lambsquarters (Chenopodium album); settings: foliage application, AAH 320 g/ha, three weeks after application
Procedure, shortened: as §2

[15] = system: barnyard grass; assay: Test Example 5: herbicidal effect by foliage application, plastic box (Table 20, symbol H); type: in vivo, barnyard grass (Echinochloa crus-galli); settings: foliage application, AAH 320 g/ha, three weeks after application
Procedure, shortened: as §2

[16] = system: redroot pigweed; assay: Test Example 5: herbicidal effect by foliage application, plastic box (Table 20, symbol N); type: in vivo, redroot pigweed (Amaranthus retroflexus); settings: foliage application, AAH 320 g/ha, three weeks after application
Procedure, shortened: as §2

[17] = system: redroot pigweed; assay: Test Example 4: herbicidal effect by soil treatment (Table 19, symbol N); type: in vivo, redroot pigweed (Amaranthus retroflexus); settings: AAH 320 g/ha
Procedure, shortened: as §1

[18] = system: Chinese sprangletop; assay: Test Example 3: herbicidal effect by foliage application, Wagner pot (Table 18, symbol D); type: in vivo, chinese sprangletop (Leptochloa chinensis); settings: 320 g/ha
Procedure, shortened: as §3

[19] = system: southern crabgrass; assay: Test Example 4: herbicidal effect by soil treatment (Table 19, symbol F); type: in vivo, southern crabgrass (Digitaria ciliaris); settings: AAH 320 g/ha
Procedure, shortened: as §1

[20] = system: rice flat sedge; assay: Test Example 3: herbicidal effect by foliage application, Wagner pot (Table 18, symbol E); type: in vivo, rice flat sedge (Cyperus iria); settings: 320 g/ha
Procedure, shortened: as §3

[21] = system: persian speedwell; assay: Test Example 4: herbicidal effect by soil treatment (Table 19, symbol R); type: in vivo, Persian speedwell (Veronica persica); settings: AAH 320 g/ha
Procedure, shortened: as §1

[22] = system: chickweed; assay: Test Example 5: herbicidal effect by foliage application, plastic box (Table 20, symbol P); type: in vivo, common chickweed (Stellaria media); settings: foliage application, AAH 320 g/ha, three weeks after application
Procedure, shortened: as §2

[23] = system: wild oat; assay: Test Example 4: herbicidal effect by soil treatment (Table 19, symbol I); type: in vivo, wild oat (Avena fatua); settings: AAH 320 g/ha
Procedure, shortened: as §1

[24] = system: persian speedwell; assay: Test Example 5: herbicidal effect by foliage application, plastic box (Table 20, symbol R); type: in vivo, Persian speedwell (Veronica persica); settings: foliage application, AAH 320 g/ha, three weeks after application
Procedure, shortened: as §2

[25] = system: green foxtail; assay: Test Example 5: herbicidal effect by foliage application, plastic box (Table 20, symbol G); type: in vivo, green foxtail (Setaria viridis); settings: foliage application, AAH 320 g/ha, three weeks after application
Procedure, shortened: as §2

[26] = system: green foxtail; assay: Test Example 4: herbicidal effect by soil treatment (Table 19, symbol G); type: in vivo, green foxtail (Setaria viridis); settings: AAH 320 g/ha
Procedure, shortened: as §1

[27] = system: blackgrass; assay: Test Example 5: herbicidal effect by foliage application, plastic box (Table 20, symbol J); type: in vivo, blackgrass (Alopecurus myosuroides); settings: foliage application, AAH 320 g/ha, three weeks after application
Procedure, shortened: as §2

Row | SMILES | P: chickweed, herbicidal effect rating [1] | M: velvetleaf, herbicidal effect rating [2] | O: lambsquarters, herbicidal effect rating [3] | K: Italian ryegrass, herbicidal effect [4] | herbicidal effect on H (barnyard grass), rating 0-5 [5] | M: velvetleaf, herbicidal effect [6] | I: wild oat, herbicidal effect [7] | L: windgrass, herbicidal effect [8] | K: Italian ryegrass, herbicidal effect rating [9] | H: barnyard grass, herbicidal effect rating [10] | L: windgrass, herbicidal effect rating [11] | F: southern crabgrass, herbicidal effect [12] | J: blackgrass, herbicidal effect rating [13] | O: lambsquarters, herbicidal effect [14] | H: barnyard grass, herbicidal effect [15] | N: redroot pigweed, herbicidal effect [16] | N: redroot pigweed, herbicidal effect rating [17] | herbicidal effect on D (Chinese sprangletop), rating 0-5 [18] | F: southern crabgrass, herbicidal effect rating [19] | herbicidal effect on E (rice flat sedge), rating 0-5 [20] | also measured
1 | COc1nn(C)c(=O)c(-c2c(-c3ccc([N+](=O)[O-])cc3)sc3ccccc23)c1O [1-168] | 4 (Herbicidal rate of 70% or more and less than 90%) | 0 (Herbicidal rate of 5% or less (almost no effect)) | 0 (Herbicidal rate of 5% or less (almost no effect)) | 2 (Herbicidal rate of 20% or more and less than 40%) | 0 (Herbicidal rate of 5% or less (almost no effect)) | 4 (Herbicidal rate of 70% or more and less than 90%) | 0 (Herbicidal rate of 5% or less (almost no effect)) | 0 (Herbicidal rate of 5% or less (almost no effect)) | 0 (Herbicidal rate of 5% or less (almost no effect)) | 0 (Herbicidal rate of 5% or less (almost no effect)) | 0 (Herbicidal rate of 5% or less (almost no effect)) | 3 (Herbicidal rate of 40% or more and less than 70%) | 0 (Herbicidal rate of 5% or less (almost no effect)) | 4 (Herbicidal rate of 70% or more and less than 90%) | 2 (Herbicidal rate of 20% or more and less than 40%) | 5 (Herbicidal rate of 90% or more (almost completely withered)) | 1 (Herbicidal rate of 5% or more and less than 20%) | 0 (Herbicidal rate of 5% or less (almost no effect)) | 0 (Herbicidal rate of 5% or less (almost no effect)) | 3 (Herbicidal rate of 40% or more and less than 70%) | R: persian speedwell, herbicidal effect rating [21]: 3 (Herbicidal rate of 40% or more and less than 70%); P: chickweed, herbicidal effect [22]: 5 (Herbicidal rate of 90% or more (almost completely withered)); I: wild oat, herbicidal effect rating [23]: 0 (Herbicidal rate of 5% or less (almost no effect)); R: persian speedwell, herbicidal effect [24]: 5 (Herbicidal rate of 90% or more (almost completely withered)); G: green foxtail, herbicidal effect [25]: 3 (Herbicidal rate of 40% or more and less than 70%); G: green foxtail, herbicidal effect rating [26]: 0 (Herbicidal rate of 5% or less (almost no effect)); J: blackgrass, herbicidal effect [27]: 0 (Herbicidal rate of 5% or less (almost no effect))
2 | COc1nn(C)c(=O)c(-c2c(-c3ccc(C#N)cc3)sc3ccccc23)c1O [1-170] | 4 (Herbicidal rate of 70% or more and less than 90%) | 0 (Herbicidal rate of 5% or less (almost no effect)) | 0 (Herbicidal rate of 5% or less (almost no effect)) | 3 (Herbicidal rate of 40% or more and less than 70%) | 2 (Herbicidal rate of 20% or more and less than 40%) | 5 (Herbicidal rate of 90% or more (almost completely withered)) | 2 (Herbicidal rate of 20% or more and less than 40%) | 0 (Herbicidal rate of 5% or less (almost no effect)) | 0 (Herbicidal rate of 5% or less (almost no effect)) | 0 (Herbicidal rate of 5% or less (almost no effect)) | 0 (Herbicidal rate of 5% or less (almost no effect)) | 3 (Herbicidal rate of 40% or more and less than 70%) | 0 (Herbicidal rate of 5% or less (almost no effect)) | 5 (Herbicidal rate of 90% or more (almost completely withered)) | 4 (Herbicidal rate of 70% or more and less than 90%) | 5 (Herbicidal rate of 90% or more (almost completely withered)) | 5 (Herbicidal rate of 90% or more (almost completely withered)) | 1 (Herbicidal rate of 5% or more and less than 20%) | 0 (Herbicidal rate of 5% or less (almost no effect)) | 5 (Herbicidal rate of 90% or more (almost completely withered)) | R: persian speedwell, herbicidal effect rating [21]: 5 (Herbicidal rate of 90% or more (almost completely withered)); P: chickweed, herbicidal effect [22]: 5 (Herbicidal rate of 90% or more (almost completely withered)); I: wild oat, herbicidal effect rating [23]: 0 (Herbicidal rate of 5% or less (almost no effect)); R: persian speedwell, herbicidal effect [24]: 5 (Herbicidal rate of 90% or more (almost completely withered)); G: green foxtail, herbicidal effect [25]: 5 (Herbicidal rate of 90% or more (almost completely withered)); G: green foxtail, herbicidal effect rating [26]: 0 (Herbicidal rate of 5% or less (almost no effect)); J: blackgrass, herbicidal effect [27]: 0 (Herbicidal rate of 5% or less (almost no effect))
